Measurements from PubChem BioAssay AID330 (DTP/NCI, 2004).
Toxic doses and inconclusive results are not listed. Numbered stars: 1 amine (or outer) side, 2 acyl side, 3 side chain; on linkers, the order of the positions; unused ones are H or OH. Bridge positions count the residues as written; N and C are the ends. Square brackets hold non-standard residues; d marks the D form. Peptide text beside a SMILES is read from it. ξ: configuration not given here. X1 = CC[C@@H](C)[C@H](N[*:1])[C@H](O)CC(=O)OC(C(=O)C(C)C(=O)[*:2])C(C)C; ξNMeY = CNC(Cc1ccc(O)cc1)C(=O)O; ξNMeL = CNC(CC(C)C)C(=O)O; ξL = CC(C)CC(N)C(=O)O; ξT = CC(O)C(N)C(=O)O; ξP = O=C(O)C1CCCN1

Test system: P388 leukemia ip, CD2F1 mice, survival T/C
Test: NCI In Vivo Anticancer Drug Screen. Data for tumor model P388 Leukemia (intraperitoneal) in CD2F1 (CDF1) mice
Details: endpoint: median survival time, higher = longer survival
Summary of the method: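 Mice carrying the transplanted tumor received test compound or vehicle. Survival was recorded in each group, and the value is the treated-group measurement divided by that of the vehicle-treated control group.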

[1] = dose: 50.0 mg/kg/injection, schedule: Q01DX005 (ip), vehicle: saline with Tween-80
[2] = dose: 100.0 mg/kg/injection, schedule: Q01DX005 (ip), vehicle: saline with Tween-80
[3] = dose: 200.0 mg/kg/injection, schedule: Q01DX005 (ip), vehicle: saline with Tween-80
[4] = dose: 50.0 mg/kg/injection, schedule: Q01DX009 (ip), vehicle: saline

Structure (SMILES): Cc1cc(N=NC(N)=S)c2ccccc2c1O
- T/C (dose: 25.0 mg/kg/injection, schedule: Q04DX003 (ip), vehicle: Klucel (hydroxypropylcellulose) (HPC)): 100 % of control
- T/C (dose: 50.0 mg/kg/injection, schedule: Q04DX003 (ip), vehicle: Klucel (hydroxypropylcellulose) (HPC)): 97 % of control
- T/C (dose: 100.0 mg/kg/injection, schedule: Q04DX003 (ip), vehicle: Klucel (hydroxypropylcellulose) (HPC)): 102 % of control
- T/C (dose: 200.0 mg/kg/injection, schedule: Q04DX003 (ip), vehicle: Klucel (hydroxypropylcellulose) (HPC)): 100 % of control

Structure (SMILES): CCn1c(=O)c2c(nc(Cl)n2C2OC(COC(C)=O)C(OC(C)=O)C(OC(C)=O)C2OC(C)=O)n(CC)c1=O (centres undefined)
- T/C (dose: 25.0 mg/kg/injection, schedule: Q01DX009 (ip), vehicle: Klucel (hydroxypropylcellulose) (HPC)): 100 % of control
- T/C (dose: 50.0 mg/kg/injection, schedule: Q01DX009 (ip), vehicle: Klucel (hydroxypropylcellulose) (HPC)): 99 % of control
- T/C (dose: 100.0 mg/kg/injection, schedule: Q01DX009 (ip), vehicle: Klucel (hydroxypropylcellulose) (HPC)): 99 % of control

Structure (SMILES): COc1ccc2nc(C#N)ccc2c1
- T/C [1]: 92 % of control
- T/C [2]: 90 % of control
- T/C [3]: 95 % of control

Structure (SMILES): O=C(c1ccccc1)C(CC(C(=O)c1ccccc1)c1ccccc1)c1ccccc1 (centres undefined)
- T/C [1]: 108 % of control
- T/C [2]: 96 % of control
- T/C [3]: 99 % of control

Structure (SMILES): COc1ccc(-n2cnc3c(cnn3C)c2=O)cc1
- T/C (dose: 60.0 mg/kg/injection, schedule: Q01DX005 (ip), vehicle: Klucel (hydroxypropylcellulose) (HPC)): 100 % of control
- T/C (dose: 120.0 mg/kg/injection, schedule: Q01DX005 (ip), vehicle: Klucel (hydroxypropylcellulose) (HPC)): 91 % of control

Structure (SMILES): CCCCOC1OCN(C(C)(C)C)CC1(C)C (centres undefined)
- T/C (dose: 25.0 mg/kg/injection, schedule: Q01DX009 (ip), vehicle: saline with Tween-80): 101 % of control
- T/C (dose: 50.0 mg/kg/injection, schedule: Q01DX009 (ip), vehicle: saline with Tween-80): 100 % of control
- T/C (dose: 100.0 mg/kg/injection, schedule: Q01DX009 (ip), vehicle: saline with Tween-80): 113 % of control
- T/C (dose: 200.0 mg/kg/injection, schedule: Q01DX009 (ip), vehicle: saline with Tween-80): 111 % of control

Structure (SMILES): CC(C)(C)[Si](C)(C)OCc1ccccc1N1C(=O)C(N=[N+]=[N-])C1/C=C/c1ccccc1 (centres undefined)
- T/C (dose: 6.25 mg/kg/injection, schedule: Q01DX001 (ip), vehicle: Klucel (hydroxypropylcellulose) (HPC)): 101 % of control
- T/C (dose: 12.5 mg/kg/injection, schedule: Q01DX001 (ip), vehicle: Klucel (hydroxypropylcellulose) (HPC)): 103 % of control
- T/C (dose: 25.0 mg/kg/injection, schedule: Q01DX001 (ip), vehicle: Klucel (hydroxypropylcellulose) (HPC)): 94 % of control
- T/C (dose: 50.0 mg/kg/injection, schedule: Q01DX001 (ip), vehicle: Klucel (hydroxypropylcellulose) (HPC)): 101 % of control
- T/C (dose: 100.0 mg/kg/injection, schedule: Q01DX001 (ip), vehicle: Klucel (hydroxypropylcellulose) (HPC)): 98 % of control
- T/C (dose: 400.0 mg/kg/injection, schedule: Q01DX001 (ip), vehicle: saline with Tween-80): 89 % of control

Structure (SMILES): Cc1ccc([Se](=C(C(=O)c2ccccc2)C(=O)c2ccccc2)c2ccc(C)cc2)cc1
- T/C [4]: 104 % of control
- T/C (dose: 100.0 mg/kg/injection, schedule: Q01DX009 (ip), vehicle: saline): 100 % of control
- T/C (dose: 200.0 mg/kg/injection, schedule: Q01DX009 (ip), vehicle: saline): 104 % of control

Structure (SMILES): COC1=CC(=O)c2c(O)cc(OC)c(O)c2C1=O
- T/C (dose: 1.25 mg/kg/injection, schedule: Q01DX009 (ip), vehicle: saline + alcohol): 104 % of control
- T/C (dose: 1.25 mg/kg/injection, schedule: Q01DX009 (ip), vehicle: saline with Tween-80): 117 % of control
- T/C (dose: 2.5 mg/kg/injection, schedule: Q01DX009 (ip), vehicle: saline + alcohol): 104 % of control
- T/C (dose: 2.5 mg/kg/injection, schedule: Q01DX009 (ip), vehicle: saline with Tween-80): 115 % of control
- T/C (dose: 5.0 mg/kg/injection, schedule: Q01DX009 (ip), vehicle: saline + alcohol): 104 % of control
- T/C (dose: 5.0 mg/kg/injection, schedule: Q01DX009 (ip), vehicle: saline with Tween-80): 110 % of control
- T/C (dose: 10.0 mg/kg/injection, schedule: Q01DX009 (ip), vehicle: saline + alcohol): 106 % of control
- T/C (dose: 10.0 mg/kg/injection, schedule: Q01DX009 (ip), vehicle: saline with Tween-80): 110 % of control
- T/C (dose: 20.0 mg/kg/injection, schedule: Q01DX009 (ip), vehicle: saline + alcohol): 106 % of control
- T/C (dose: 20.0 mg/kg/injection, schedule: Q01DX009 (ip), vehicle: saline with Tween-80): 106 % of control

Structure (SMILES): O=c1oc2ccccc2c(O)c1C(c1ccc(Cl)cc1)c1c(O)c2ccccc2oc1=O
- T/C (dose: 15.0 mg/kg/injection, schedule: Q01DX005 (ip), vehicle: saline with Tween-80): 94 % of control
- T/C (dose: 30.0 mg/kg/injection, schedule: Q01DX005 (ip), vehicle: saline with Tween-80): 93 % of control

Structure (SMILES): [CH3][Sn]([CH3])([CH3])[O][N+](=O)[O-]
- T/C (dose: 0.37 mg/kg/injection, schedule: Q01DX009 (ip), vehicle: saline): 111 % of control
- T/C (dose: 0.75 mg/kg/injection, schedule: Q01DX009 (ip), vehicle: saline): 91 % of control

Structure (SMILES): COc1ccc(-c2cc3cc(OC)c(OC)cc3cn2)cc1OC
- T/C (dose: 6.25 mg/kg/injection, schedule: Q01DX009 (ip), vehicle: suspension in saline): 99 % of control
- T/C (dose: 12.5 mg/kg/injection, schedule: Q01DX009 (ip), vehicle: suspension in saline): 98 % of control
- T/C (dose: 25.0 mg/kg/injection, schedule: Q01DX009 (ip), vehicle: saline): 98 % of control
- T/C (dose: 25.0 mg/kg/injection, schedule: Q01DX009 (ip), vehicle: suspension in saline): 97 % of control
- T/C [4]: 90 % of control

Structure (SMILES): COc1nsc2ccc(C(C)C(N)=O)cc12 (centres undefined)
- T/C (dose: 60.0 mg/kg/injection, schedule: Q01DX005 (ip), vehicle: saline with Tween-80): 100 % of control
- T/C (dose: 120.0 mg/kg/injection, schedule: Q01DX005 (ip), vehicle: saline with Tween-80): 97 % of control
- T/C (dose: 240.0 mg/kg/injection, schedule: Q01DX005 (ip), vehicle: saline with Tween-80): 89 % of control

Structure (SMILES): COc1cc(CC2C(CO)OC(=O)C2Cc2ccc3c(c2)OCO3)cc(OC)c1OC (centres undefined)
- T/C (dose: 50.0 mg/kg/injection, schedule: Q04DX002 (ip), vehicle: acetone): 98 % of control
- T/C (dose: 100.0 mg/kg/injection, schedule: Q04DX002 (ip), vehicle: acetone): 98 % of control
- T/C (dose: 200.0 mg/kg/injection, schedule: Q04DX002 (ip), vehicle: acetone): 98 % of control

Structure (SMILES): CC1=C(C)C(N(C)C)CS(=O)(=O)O1 (centres undefined)
- T/C (dose: 50.0 mg/kg/injection, schedule: Q01DX005 (ip), vehicle: Klucel (hydroxypropylcellulose) (HPC)): 99 % of control
- T/C (dose: 100.0 mg/kg/injection, schedule: Q01DX005 (ip), vehicle: Klucel (hydroxypropylcellulose) (HPC)): 104 % of control

Structure (SMILES): O=C(NC1CCCCC1)OCC1OC(n2cnc3c(=O)[nH]cnc32)C(OC(=O)NC2CCCCC2)C1OC(=O)NC1CCCCC1 (centres undefined)
- T/C (dose: 6.25 mg/kg/injection, schedule: Q01DX005 (ip), vehicle: saline with Tween-80): 98 % of control
- T/C (dose: 12.5 mg/kg/injection, schedule: Q01DX005 (ip), vehicle: saline with Tween-80): 90 % of control
- T/C (dose: 25.0 mg/kg/injection, schedule: Q01DX005 (ip), vehicle: saline with Tween-80): 90 % of control

Structure (SMILES): Cc1ccc(S(=O)(=O)OCC(OS(=O)(=O)c2ccc(C)cc2)C2OC3OC(C)(C)OC3C2O)cc1 (centres undefined)
- T/C [1]: 103 % of control
- T/C [2]: 97 % of control
- T/C [3]: 96 % of control

Structure (SMILES): CC[C@@H](C)[C@@H]1NC(=O)C(NC(=O)C(CC(C)C)NC)C(C)OC(=O)C(Cc2ccc(OC)cc2)N(C)C(=O)C2CCCN2C(=O)C(CC(C)C)NC(=O)C(C)C(=O)C(C(C)C)OC(=O)C[C@H]1O (some centres undefined) (H-[ξNMeL][ξT][X1][ξL][ξP][ξNMeY](Me); ester 2-C)
- T/C (dose: 0.06 mg/kg/injection, schedule: Q01DX005 (ip), vehicle: water): 104 % of control
- T/C (dose: 0.13 mg/kg/injection, schedule: Q01DX005 (ip), vehicle: water): 112 % of control
- T/C (dose: 0.25 mg/kg/injection, schedule: Q01DX005 (ip), vehicle: water): 114 % of control
- T/C (dose: 0.5 mg/kg/injection, schedule: Q01DX005 (ip), vehicle: saline + alcohol): 113 % of control
- T/C (dose: 1.0 mg/kg/injection, schedule: Q01DX005 (ip), vehicle: saline + alcohol): 124 % of control
- T/C (dose: 2.0 mg/kg/injection, schedule: Q01DX005 (ip), vehicle: water): 150 % of control
- T/C (dose: 0.25 micrograms/kg/injection, schedule: Q01DX005 (ip), vehicle: saline + alcohol): 106 % of control
- T/C (dose: 0.5 micrograms/kg/injection, schedule: Q01DX005 (ip), vehicle: saline + alcohol): 110 % of control
- T/C (dose: 1.0 micrograms/kg/injection, schedule: Q01DX005 (ip), vehicle: saline + alcohol): 96 % of control
- T/C (dose: 2.0 micrograms/kg/injection, schedule: Q01DX005 (ip), vehicle: saline + alcohol): 100 % of control

Structure (SMILES): c1cc[n+](Cc2ccc3ccccc3c2)c(C2OCCO2)c1
- T/C (dose: 5.0 mg/kg/injection, schedule: Q01DX009 (ip), vehicle: saline): 100 % of control
- T/C (dose: 10.0 mg/kg/injection, schedule: Q01DX009 (ip), vehicle: saline): 100 % of control
- T/C (dose: 20.0 mg/kg/injection, schedule: Q01DX009 (ip), vehicle: saline): 104 % of control
